Experimental data: US20220324835A1 (Nurix Therapeutics, Inc., priority 2018, published 2022)

Experiments:
[1] = tested on: T-cell; assay: CD25 cell surface staining on T-cells stimulated with anti-CD3 antibody alone (Biological Example 2); type: cell-based, human; conditions: T-cell, fold change over baseline, primary human total T-cells, read-out: CD25 staining Anti-CD3 stimulation; for fold induction at 1 µM: 1 μM Cbl-b inhibitor; for fold induction at 8 µM: 8 μM Cbl-b inhibitor
[2] = tested on: T-cell; assay: IL-2 secretion from T-cells co-stimulated with anti-CD3 and anti-CD28 antibody (Biological Example 2); type: cell-based, human; conditions: Homo sapiens, T-cell, fold change over baseline, primary human total T-cells, read-out: IL-2 secretion Anti-CD3/Anti-CD28 stimulation; for fold induction at 0.3 µM: 0.3 μM Cbl-b inhibitor; for fold induction at 1 µM: 1 μM Cbl-b inhibitor; for fold induction at 4 µM: 4 μM Cbl-b inhibitor
How it was run: (§1)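 T-cells were stimulated with anti-CD3 antibody alone or with anti-CD28 antibody, in the presence or absence of Cbl-b inhibitor. IL-2 secretion or CD25 surface staining was measured, and values expressed as fold over the uninhibited baseline […].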

[3] = biological target: T1, Cbl-b (Homo sapiens, UniProt Q13191); assay: Cbl-b inhibition assay (Cbl-b activity assay, FRET, Biological Example 1; 100 mM NaCl, 60 nM Src kinase); type: biochemical; conditions: upper bound stated in text lists; read-out: IC50 values in the Cbl-b inhibition assay of Biological Example 1
T1 sequence (Q13191 36-427): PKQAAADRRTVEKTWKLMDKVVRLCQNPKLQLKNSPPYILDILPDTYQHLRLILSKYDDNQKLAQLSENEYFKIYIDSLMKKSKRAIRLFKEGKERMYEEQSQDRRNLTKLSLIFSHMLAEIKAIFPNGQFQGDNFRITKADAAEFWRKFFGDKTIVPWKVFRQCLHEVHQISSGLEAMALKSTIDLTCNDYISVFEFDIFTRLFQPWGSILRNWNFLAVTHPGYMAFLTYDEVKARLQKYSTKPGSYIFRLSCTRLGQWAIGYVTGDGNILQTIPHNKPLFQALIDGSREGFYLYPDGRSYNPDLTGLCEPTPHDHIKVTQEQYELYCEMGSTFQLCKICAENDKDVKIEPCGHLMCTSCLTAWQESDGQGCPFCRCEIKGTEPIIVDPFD
How it was run: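 FRET read-out: loss of signal marks inhibition. Mix = biotin-Avi-Cbl-b (N-term), Src kinase, UbcH5B-Ub(Bodipy-FL, irreversible conjugate), streptavidin-Tb, assay buffer.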

[4] = biological target: T1, Cbl-b; assay: Cbl-b activity assay (Cbl-b inhibition assay), TR-FRET of Cbl-b interaction with UbcH5B-Ub; type: biochemical; conditions: assay buffer with 100 mM NaCl, 60 nM Src kinase; read-out: Cbl-b activity IC50
How it was run: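 UbcH5B (C85K) conjugated to N-terminally Bodipy-Fluorescein-labeled ubiquitin served as the fluorescent partner. After compound preincubation, Src kinase (60 nM) with 1 mM ATP and 5 mM MgCl2 (final) was added for 1.5 h, followed by a further 1 h incubation. Some values were obtained with 50 mM NaCl and 30 nM Src.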

[5] = tested on: T-cell; assay: CD25 cell surface staining on T-cells co-stimulated with anti-CD3 and anti-CD28 antibody (Biological Example 2); type: cell-based, human; conditions: Homo sapiens, T-cell, fold change over baseline, primary human total T-cells, read-out: CD25 staining Anti-CD3/Anti-CD28 stimulation; for fold induction at 0.3 µM: 0.3 μM Cbl-b inhibitor; for fold induction at 1 µM: 1 μM Cbl-b inhibitor; for fold induction at 4 µM: 4 μM Cbl-b inhibitor
How it was run: as §1

| Compound | fold induction at 1 µM [1] | fold induction at 8 µM [1] | fold induction at 0.3 µM [2] | fold induction at 1 µM [2] | fold induction at 4 µM [2] | IC50 [3] [µM] | IC50 [4] [µM] | fold induction at 0.3 µM [5] | fold induction at 1 µM [5] | fold induction at 4 µM [5] |
| --- | --- | --- | --- | --- | --- | --- | --- | --- | --- | --- |
| C[C@H](Cc1nncn1C)c1cccc(NC(=O)c2cccc(C(F)(F)F)n2)c1 [Compound 183a, (R)-N-(3-(1-(4-methyl-4H-1,2,4-triazol-3-yl)propan-2-yl)phenyl)-6-(trifluoromethyl)picolinamide] | > 1 | > 1 | 2.51 to 5 | 5 to 7.5 | > 7.5 | ≤ 0.1 | < 0.1 | > 1.76 | > 1.76 | > 1.76 |
| C[C@H](Cc1nncn1C)c1cccc(NC(=O)c2cc(C3CC3)cc(C(F)(F)F)n2)c1 [Compound 191, (R)-4-cyclopropyl-N-(3-(1-(4-methyl-4H-1,2,4-triazol-3-yl)propan-2-yl)phenyl)-6-(trifluoromethyl)picolinamide] | > 1 | > 1 | 2.51 to 5 | 5 to 7.5 | > 7.5 | ≤ 0.1 | < 0.1 | 1.31 to 1.5 | 1.51 to 1.75 | 1.51 to 1.75 |
| C[C@H](Cc1nncn1C)c1cccc(NC(=O)c2cc(C3CC3)nc(C3CC3)n2)c1 [Compound 193, (R)-2,6-dicyclopropyl-N-(3-(1-(4-methyl-4H-1,2,4-triazol-3-yl)propan-2-yl)phenyl)pyrimidine-4-carboxamide] | > 1 | > 1 | 2.51 to 5 | 5 to 7.5 | > 7.5 | ≤ 0.1 | < 0.1 | 1.01 to 1.3 | 1.51 to 1.75 | 1.51 to 1.75 |
| Cc1cc(C(=O)Nc2cccc([C@H](C)Cc3nncn3C)c2)nc(C(F)(F)F)n1 [Compound 194, (R)-6-methyl-N-(3-(1-(4-methyl-4H-1,2,4-triazol-3-yl)propan-2-yl)phenyl)-2-(trifluoromethyl)pyrimidine-4-carboxamide] | 0.801 to 1 | > 1 | 2.51 to 5 | > 7.5 | > 7.5 | ≤ 0.1 | < 0.1 | 1.01 to 1.3 | 1.51 to 1.75 | > 1.76 |
| Cc1cc(C(=O)Nc2cccc([C@H](C)Cc3nncn3C)c2)nc(C2CC2)n1 [Compound 195, (R)-2-cyclopropyl-6-methyl-N-(3-(1-(4-methyl-4H-1,2,4-triazol-3-yl)propan-2-yl)phenyl)pyrimidine-4-carboxamide] | > 1 | > 1 | 5 to 7.5 | > 7.5 | > 7.5 | ≤ 0.1 | < 0.1 | 1.51 to 1.75 | > 1.76 | > 1.76 |
| C[C@H](Cc1nncn1C)c1cccc(NC(=O)c2nc3c(C(F)(F)F)cccc3[nH]2)c1 [Compound 196, N-[3-[(1R)-1-methyl-2-(4-methyl-1,2,4-triazol-3-yl)ethyl]phenyl]-4-(trifluoromethyl)-1H-benzimidazole-2-carboxamide] | > 1 | > 1 | 2.51 to 5 | 5 to 7.5 | > 7.5 | ≤ 0.1 | < 0.1 | 1.01 to 1.3 | 1.51 to 1.75 | > 1.76 |
| C[C@H](Cc1nncn1C)c1cccc(NC(=O)c2ccnc(C3CC3)n2)c1 [Compound 199, (R)-2-cyclopropyl-N-(3-(1-(4-methyl-4H-1,2,4-triazol-3-yl)propan-2-yl)phenyl)pyrimidine-4-carboxamide] | > 1 | > 1 | 2.51 to 5 | 5 to 7.5 | > 7.5 | ≤ 0.1 | < 0.1 | 1.01 to 1.3 | 1.31 to 1.5 | 1.51 to 1.75 |
| C[C@H](Cc1nncn1C)c1cccc(NC(=O)c2ccc(CO)c(C3CC3)n2)c1 [Compound 203, 6-cyclopropyl-5-(hydroxymethyl)-N-[3-[(2R)-1-(4-methyl-4H-1,2,4-triazol-3-yl)propan-2-yl]phenyl]pyridine-2-carboxamide] | > 1 | > 1 | > 7.5 | > 7.5 | > 7.5 | ≤ 0.1 | < 0.1 | 1.31 to 1.5 | 1.51 to 1.75 | 1.51 to 1.75 |
| CC(=O)N1CCN(c2ccc3cnc(C(=O)Nc4cccc([C@H](C)Cc5nncn5C)c4)cc3c2)CC1 [Compound 211, (R)-6-(4-acetylpiperazin-1-yl)-N-(3-(1-(4-methyl-4H-1,2,4-triazol-3-yl)propan-2-yl)phenyl)isoquinoline-3-carboxamide 2,2,2-trifluoroacetate] | 0.601 to 0.8 | > 1 | 2.51 to 5 | 5 to 7.5 | > 7.5 | ≤ 0.1 | < 0.1 | 1.01 to 1.3 | 1.01 to 1.3 | 1.51 to 1.75 |
| C[C@H](Cc1nncn1C)c1cccc(NC(=O)c2cc(C(=O)N3CC[C@H](O)C3)cc(C(F)(F)F)n2)c1 [Compound 220, 4-((S)-3-hydroxypyrrolidine-1-carbonyl)-N-(3-((R)-1-(4-methyl-4H-1,2,4-triazol-3-yl)propan-2-yl)phenyl)-6-(trifluoromethyl)picolinamide] | > 1 | > 1 | 2.51 to 5 | > 7.5 | > 7.5 | ≤ 0.1 | < 0.1 | 1.31 to 1.5 | 1.51 to 1.75 | > 1.76 |
| C[C@H](Cc1nncn1C)c1cccc(N2Cc3c(cccc3C(F)(F)F)C2=O)c1 [Compound 255a, (R)-2-(3-(1-(4-methyl-4H-1,2,4-triazol-3-yl)propan-2-yl)phenyl)-4-(trifluoromethyl)isoindolin-1-one] | 0.601 to 0.8 | > 1 | 1.01 to 2.5 | 2.51 to 5 | 5 to 7.5 | ≤ 0.1 | < 0.1 | 1.31 to 1.5 | 1.51 to 1.75 | > 1.76 |
| C[C@H](Cc1nncn1C)c1cccc(N2Cc3c(cc(C(=O)N4CC[C@H](O)C4)cc3C(F)(F)F)C2=O)c1 [Compound 274, 6-((S)-3-hydroxypyrrolidine-1-carbonyl)-2-(3-((R)-1-(4-methyl-4H-1,2,4-triazol-3-yl)propan-2-yl)phenyl)-4-(trifluoromethyl)isoindolin-1-one] | 0.801 to 1 | > 1 | 1.01 to 2.5 | 2.51 to 5 | > 7.5 | ≤ 0.1 | < 0.1 | 1.01 to 1.3 | 1.01 to 1.3 | 1.31 to 1.5 |
| C[C@H](Cc1nncn1C)c1cccc(N2Cc3c(cc(C(=O)N4C[C@@H](O)C[C@H]4C)cc3C(F)(F)F)C2=O)c1 [Compound 275, 6-((2R,4S)-4-hydroxy-2-methylpyrrolidine-1-carbonyl)-2-(3-((R)-1-(4-methyl-4H-1,2,4-triazol-3-yl)propan-2-yl)phenyl)-4-(trifluoromethyl)isoindolin-1-one] | 0.801 to 1 | > 1 | 2.51 to 5 | 5 to 7.5 | > 7.5 | ≤ 0.1 | < 0.1 | 1.31 to 1.5 | 1.51 to 1.75 | > 1.76 |
